The test system of this assay is BDF1 mice, C1498 leukemia ip, median survival T/C. Description: NCI In Vivo Anticancer Drug Screen. Data for tumor model C1498 Myeloid Leukemia (intraperitoneal) in B6D2F1 (BDF1) mice. Particulars: endpoint: median survival time, schedule: Q01DX010 (ip), higher = longer survival. The protocol: The antitumor activity of compounds was measured in mice bearing transplantable tumors. Survival or tumor size were measured and the results are expressed as the measurement made in the treated group (T) divided by the measurement made in the vehicle treated control group (C). The tumor model used in this assay is C1498 Myeloid Leukemia (intraperitoneal) in B6D2F1 (BDF1) mice

Setting [1] is: dose: 2.5 mg/kg/injection, vehicle: saline.
Where [2] appears, read: dose: 5.0 mg/kg/injection, vehicle: saline.
Setting [3] is: dose: 10.0 mg/kg/injection, vehicle: saline.
The mark [4] stands for this setting: dose: 20.0 mg/kg/injection, vehicle: saline.
The mark [5] stands for this setting: dose: 31.3 mg/kg/injection, vehicle: saline.
Where [6] appears, read: dose: 62.5 mg/kg/injection, vehicle: saline.
Where [7] appears, read: dose: 125.0 mg/kg/injection, vehicle: saline.
Setting [8] is: dose: 250.0 mg/kg/injection, vehicle: saline.
Where [9] appears, read: dose: 1.25 mg/kg/injection, vehicle: other.
The mark [10] stands for this setting: dose: 2.5 mg/kg/injection, vehicle: other.
[11] abbreviates: dose: 200.0 mg/kg/injection, vehicle: saline.
[12] abbreviates: dose: 8.0 mg/kg/injection, vehicle: saline.
Where [13] appears, read: dose: 16.0 mg/kg/injection, vehicle: saline.
[14] abbreviates: dose: 6.25 mg/kg/injection, vehicle: saline.
[15] abbreviates: dose: 12.5 mg/kg/injection, vehicle: saline.
[16] abbreviates: dose: 25.0 mg/kg/injection, vehicle: saline.
The mark [17] stands for this setting: dose: 50.0 mg/kg/injection, vehicle: saline.
Where [18] appears, read: dose: 100.0 mg/kg/injection, vehicle: saline.

Several values for one entry are separate records, joined by “and”; a condition that tells them apart may be missing. Identical values can stand only once. Toxic doses and inconclusive results are not listed.

For `S=P(N1CCOCC1)(N1CC1)N1CC1`, the T/C under setting [1] was 95 % of control and 104 % of control; the T/C under setting [2] is 95 % of control and 100 % of control; the T/C under setting [3] is 100 % of control and 104 % of control; the T/C under setting [4] was 104 % of control.
As to `COc1cc(-c2ccc(Nc3ccccc3C(=O)O)c(OC)c2)ccc1N`, the T/C under setting [2] is 100 % of control; the T/C under setting [3] was 95 % of control and 100 % of control; the T/C under setting [4] is 100 % of control and 105 % of control; the T/C (dose: 40.0 mg/kg/injection, vehicle: saline) was 118 % of control.
For the compound `Nc1c(Br)cc2c(c1Br)Cc1cc([N+](=O)[O-])ccc1-2`, the T/C was 91 % of control under setting [5]; 91 % of control and 100 % of control under setting [6]; 91 % of control under setting [7]; 91 % of control and 95 % of control under setting [8]; 95 % of control (dose: 500.0 mg/kg/injection, vehicle: saline).
As for `NC(Cc1ccc(N(CCCl)CCCl)cc1)C(=O)O` (configuration not stated), the T/C runs as follows: under setting [2], 173 % of control; under setting [3], 88 % of control.
For `O=C(O)c1[nH]c(=O)[nH]c(=O)c1F`, the T/C (dose: 1.25 mg/kg/injection, vehicle: saline) was 116 % of control and 118 % of control; the T/C under setting [1] is 122 % of control; the T/C under setting [2] was 158 % of control and 163 % of control; the T/C under setting [3] is 95 % of control and 109 % of control.
For `S=c1nc[nH]c2nc[nH]c12`, the T/C was 104 % of control under setting [9]; 95 % of control under setting [10]; 109 % of control (dose: 5.0 mg/kg/injection, vehicle: other); 95 % of control (dose: 10.0 mg/kg/injection, vehicle: other).
For `O=c1cnn(C2OC(CO)C(O)C2O)c(=O)[nH]1` (configuration not stated), the T/C is 104 % of control under setting [11]; 100 % of control (dose: 400.0 mg/kg/injection, vehicle: saline); 100 % of control (dose: 800.0 mg/kg/injection, vehicle: saline).
As to `Nc1nc(SCc2ccccc2)c2[nH]cnc2n1`, the T/C under setting [12] was 100 % of control; the T/C under setting [13] is 105 % of control; the T/C (dose: 32.0 mg/kg/injection, vehicle: saline) is 105 % of control; the T/C (dose: 64.0 mg/kg/injection, vehicle: saline) was 90 % of control.
`C[C@H]1C(=O)O[C@@H]2CCN3CC=C(COC(=O)[C@](C)(O)[C@@]1(C)O)[C@H]23`: the T/C is 100 % of control and 103 % of control (dose: 3.13 mg/kg/injection, vehicle: saline); 100 % of control under setting [14]; 95 % of control and 107 % of control under setting [15]; 95 % of control and 96 % of control under setting [16].
As for `CS(=O)(=O)OCCC(=O)N1CCN(C(=O)CCOS(C)(=O)=O)CC1`, the T/C was 100 % of control and 105 % of control under setting [14]; 100 % of control and 110 % of control and 118 % of control under setting [15]; 108 % of control and 109 % of control and 110 % of control under setting [16]; 104 % of control and 109 % of control under setting [17]; 109 % of control under setting [18].
Take `CS(=O)(=O)OCC(O)C(O)C(O)C(O)COS(C)(=O)=O` (configuration not stated): the T/C was 100 % of control (2×) and 104 % of control under setting [16]; 95 % of control and 100 % of control and 108 % of control under setting [17]; 100 % of control (2×) and 109 % of control under setting [18]; 104 % of control under setting [11].
Turning to `Clc1ncnc2nc[nH]c12`, the T/C is 95 % of control and 100 % of control (dose: 7.5 mg/kg/injection, vehicle: saline); 95 % of control and 90 % of control (dose: 15.0 mg/kg/injection, vehicle: saline); 104 % of control and 90 % of control (dose: 30.0 mg/kg/injection, vehicle: saline); 95 % of control (dose: 60.0 mg/kg/injection, vehicle: saline).
`CCN(CC)CCNc1ccc(C)c2sc3ccccc3c(=O)c12`: the T/C by setting is: under setting [16], 113 % of control and 118 % of control; under setting [17], 118 % of control and 122 % of control; under setting [18], 159 % of control and 172 % of control.
Consider `COc1ccc2c(c1OC)C(=O)O[C@@H]2[C@H]1c2c(cc3c(c2OC)OCO3)CCN1C`, for which the T/C reads like this: (dose: 15.6 mg/kg/injection, vehicle: saline) 100 % of control; under setting [5], 95 % of control and 100 % of control (2×); under setting [6], 87 % of control and 90 % of control (2×); under setting [7], 86 % of control and 87 % of control and 90 % of control; under setting [8], 90 % of control.
As to `C=CC(CN1CC1)OC(C)=O` (configuration not stated), the T/C reads like this: (dose: 2.0 mg/kg/injection, vehicle: saline) 104 % of control; (dose: 4.0 mg/kg/injection, vehicle: saline) 122 % of control; under setting [13], 104 % of control.
As for `O=C(Nc1ccc(C2=NCCN2)cc1)c1ccc(C(=O)Nc2ccc(C3=NCCN3)cc2)c([N+](=O)[O-])c1`, the T/C is 96 % of control and 119 % of control (dose: 6.0 mg/kg/injection, vehicle: saline); 100 % of control under setting [12]; 103 % of control (dose: 18.0 mg/kg/injection, vehicle: saline).
In the case of `CN(C)c1ccc(Nc2c3ccccc3nc3ccccc23)cc1`, the T/C (dose: 36.0 mg/kg/injection, vehicle: saline) is 118 % of control and the T/C (dose: 120.0 mg/kg/injection, vehicle: saline) is 86 % of control.
Take `COc1cccc2c1C(=O)c1c(O)c3c(c(O)c1C2=O)C[C@@](O)(C(C)=O)C[C@@H]3OC1CC(N)C(O)C(C)O1` (some centres not stated): the T/C by setting is: under setting [9], 107 % of control and 115 % of control; under setting [10], 92 % of control and 111 % of control; (dose: 156.0 micrograms/kg/injection, vehicle: saline) 118 % of control; (dose: 313.0 micrograms/kg/injection, vehicle: saline) 118 % of control.

The values are drawn from PubChem BioAssay AID312 (DTP/NCI, 2004).
